Measurements taken from US20240116985A1, “STAPLED PEPTIDES AND METHODS THEREOF” (priority 2020, published 2024).

Tests used:
[1] = target: T1, full-length B-Catenin (Uniprot ID P35222) (Homo sapiens, UniProt P35222); assay: Alphascreen binding assay (beta-catenin / biotin-TCF4 10-53)
T1 construct: 65 nM full-length B-Catenin (Uniprot ID P35222)
T1 sequence (P35222 1-781): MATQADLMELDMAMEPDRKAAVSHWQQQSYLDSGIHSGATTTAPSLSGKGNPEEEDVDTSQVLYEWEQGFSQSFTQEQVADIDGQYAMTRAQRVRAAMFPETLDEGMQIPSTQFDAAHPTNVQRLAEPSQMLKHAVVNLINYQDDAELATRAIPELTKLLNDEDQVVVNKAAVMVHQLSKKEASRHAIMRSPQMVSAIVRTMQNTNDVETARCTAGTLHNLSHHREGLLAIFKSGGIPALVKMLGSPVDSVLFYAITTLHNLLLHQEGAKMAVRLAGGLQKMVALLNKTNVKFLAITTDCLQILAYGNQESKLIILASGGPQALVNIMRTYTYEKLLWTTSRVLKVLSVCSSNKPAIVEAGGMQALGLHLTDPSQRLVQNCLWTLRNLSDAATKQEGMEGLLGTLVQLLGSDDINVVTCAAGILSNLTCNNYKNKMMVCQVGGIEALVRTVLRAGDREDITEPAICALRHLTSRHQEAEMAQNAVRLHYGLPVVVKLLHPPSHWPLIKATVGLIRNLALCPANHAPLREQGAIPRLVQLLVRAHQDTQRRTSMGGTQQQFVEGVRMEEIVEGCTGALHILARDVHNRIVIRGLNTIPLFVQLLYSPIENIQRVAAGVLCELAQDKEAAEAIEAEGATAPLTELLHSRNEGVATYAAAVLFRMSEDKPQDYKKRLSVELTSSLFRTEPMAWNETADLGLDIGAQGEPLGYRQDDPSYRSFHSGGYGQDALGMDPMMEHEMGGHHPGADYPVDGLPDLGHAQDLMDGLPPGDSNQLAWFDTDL
How it was run: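 Final concentrations: 65 nM full-length human β-catenin plus 10 nM biotin-TCF4(10-53) peptide, test peptide 3-fold from 10 uM to 5 nM, preincubated 15 min at 20 °C in Tris pH 8.0/250 mM NaCl buffer. Nickel-chelate AlphaScreen donor/acceptor beads then added for 60 min in the dark; duplicate reads fitted to 1:1 binding model with Hill slope.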

CHI Log D procedure = assay type: physicochemical; details: for CHI Log D: pH 7.4; for chromatographic logD: pH 7.4, CHI Log D

| Compound | EC50 [1] [µM] | CHI Log D (CHI Log D procedure) | chromatographic logD (CHI Log D procedure) |
| --- | --- | --- | --- |
| CC(=O)N[C@@H](Cc1ccccc1)C(=O)N[C@@H](CC(=O)O)C(=O)N[C@@H](C)C(=O)N[C@]1(C)CCCCCCC=CCOC(=O)N2CC[C@@](C(=O)N[C@@H](Cc3ccc(C(N)=O)cc3)C(=O)N[C@@H](Cc3c[nH]c4ccccc34)C(=O)N[C@@H](CCC(N)=O)C(N)=O)(C2)NC(=O)[C@H](C(C)C)NC(=O)[C@H](Cc2ccccc2)NC(=O)[C@H](C)NC(=O)[C@H](C)NC(=O)[C@H](CC(=O)O)NC(=O)[C@H](CC(=O)O)NC1=O [I-89, Ac-Phe-Asp-Ala-R8-Asp-Asp-Ala-Ala-Phe-Val-PyrS-4CBMF-Trp-Gln-NH2] | 5.64 | 0.967 | – |
| CC(=O)N[C@@H](Cc1ccccc1)C(=O)N[C@@H](CC(=O)O)C(=O)N[C@@H](C)C(=O)N[C@]1(C)CCCCCCC=CCOC(=O)N2CC[C@@](C(=O)N[C@@H](Cc3ccccc3)C(=O)N[C@@H](Cc3c[nH]c4ccccc34)C(=O)N[C@@H](CCC(N)=O)C(N)=O)(C2)NC(=O)[C@H]([C@@H](C)O)NC(=O)[C@H](Cc2ccccc2)NC(=O)[C@H](C)NC(=O)[C@H](C)NC(=O)[C@H](CC(=O)O)NC(=O)[C@H](CC(=O)O)NC1=O [I-221, Ac-Phe-Asp-Ala-R8-Asp-Asp-Ala-Ala-Phe-Thr-PyrS-Phe-Trp-Gln-NH2] | 6.58 | 1.34 | – |
| CC(=O)N[C@@H](Cc1ccccc1)C(=O)N[C@@H](CC(=O)O)C(=O)N[C@@H](C)C(=O)N[C@]1(C)CCCCCCC=CCOC(=O)N2CC[C@@](C(=O)N[C@@H](Cc3ccccc3)C(=O)N[C@@H](Cc3c[nH]c4ccccc34)C(=O)N[C@@H](CCC(N)=O)C(N)=O)(C2)NC(=O)[C@H](C(C)C)NC(=O)[C@H](Cc2cccc(C(N)=O)c2)NC(=O)[C@H](C)NC(=O)[C@H](C)NC(=O)[C@H](CC(=O)O)NC(=O)[C@H](CC(=O)O)NC1=O [I-109, Ac-Phe-Asp-Ala-R8-Asp-Asp-Ala-Ala-3CBMF-Val-PyrS-Phe-Trp-Gln-NH2] | 8.82 | 1.223 | – |
| CC(=O)N[C@@H](Cc1ccccc1)C(=O)N[C@@H](CC(=O)O)C(=O)N[C@@H](C)C(=O)N[C@]1(C)CCCCCCC=CCOC(=O)N2CC[C@@](C(=O)N[C@@H](CC3CCCCC3)C(=O)N[C@@H](Cc3c[nH]c4ccccc34)C(=O)N[C@@H](CCC(N)=O)C(N)=O)(C2)NC(=O)[C@H](C(C)C)NC(=O)[C@H](Cc2ccccc2)NC(=O)[C@H](C)NC(=O)[C@H](C)NC(=O)[C@H](CC(=O)O)NC(=O)[C@H](CC(=O)O)NC1=O [I-61, Ac-Phe-Asp-Ala-R8-Asp-Asp-Ala-Ala-Phe-Val-PyrS-Cha-Trp-Gln-NH2] | 8.9 | 1.446 | – |
| CC(=O)N1CCC[C@]12CC=CCCCC1(CCCC=CCOC(=O)N(C)CCC[C@@](C)(C(=O)N[C@@H](Cc3ccccc3)C(=O)N[C@@H](Cc3c[nH]c4ccccc34)C(=O)N[C@@H](CCC(N)=O)C(N)=O)NC(=O)[C@H](C(C)C)NC(=O)[C@H](Cc3ccccc3)NC(=O)[C@H](C)NC(=O)[C@H](C)NC(=O)[C@H](CC(=O)O)NC(=O)[C@H](CC(=O)O)NC1=O)NC(=O)[C@H](C)NC(=O)[C@H](CC(=O)O)NC2=O (stereo partly drawn) [I-53, Ac-PL3-Asp-Ala-B5-Asp-Asp-Ala-Ala-Phe-Val-SeN-Phe-Trp-Gln-NH2] | 1.14 | 1.307 | – |
| CC(=O)N1CCC[C@]12CC=CCCCC1(CCCC=CCCCCCC[C@@](C)(C(=O)N[C@@H](Cc3ccccc3)C(=O)N[C@@H](Cc3csc4ccccc34)C(=O)N[C@@H](CCC(N)=O)C(N)=O)NC(=O)[C@H](CO)NC(=O)[C@H](Cc3ccccc3)NC(=O)[C@H](C)NC(=O)[C@H](C)NC(=O)[C@H](Cc3ccc4ccccc4c3)NC(=O)[C@H](CC(=O)O)NC1=O)NC(=O)[C@H](C)NC(=O)[C@H](CC(=O)O)NC2=O (stereo partly drawn) [I-298, Ac-PL3-Asp-Ala-B5-Asp-2NapA-Ala-Ala-Phe-Ser-S8-Phe-BztA-Gln-NH2] | 3.86 | – | 2.78 |
| CC(=O)N1CCC[C@]12CC=CCCCC1(CCCC=CCCCCCC[C@@](C)(C(=O)N[C@@H](Cc3ccccc3)C(=O)N[C@@H](Cc3c[nH]c4ccc(C5CC5)cc34)C(=O)N[C@@H](CCC(N)=O)C(N)=O)NC(=O)[C@H](C(C)C)NC(=O)[C@H](Cc3ccccc3)NC(=O)[C@H](C)NC(=O)[C@H](C)NC(=O)[C@H](CCC(=O)O)NC(=O)[C@H](CC(=O)O)NC1=O)NC(=O)[C@H](C)NC(=O)[C@H](CC(=O)O)NC2=O (stereo partly drawn) [I-171, Ac-PL3-Asp-Ala-B5-Asp-Glu-Ala-Ala-Phe-Val-S8-Phe-5CpW-Gln-NH2] | 2.07 | 2.204 | – |
| CC(=O)N1CCC[C@]12CC=CCCCC1(CCCC=CCCCCCC[C@@](C)(C(=O)N[C@@H](Cc3ccccc3)C(=O)N[C@@H](Cc3c[nH]c4ccccc34)C(=O)N[C@@H](CCC(N)=O)C(N)=O)NC(=O)[C@H](C(C)C)NC(=O)[C@H](Cc3ccccc3)NC(=O)[C@H](C)NC(=O)[C@H](C)NC(=O)[C@H](Cc3cccc(C(F)(F)F)c3)NC(=O)[C@H](CC(=O)O)NC1=O)NC(=O)[C@H](C)NC(=O)[C@H](CC(=O)O)NC2=O (stereo partly drawn) [I-244, Ac-PL3-Asp-Ala-B5-Asp-3F3MeF-Ala-Ala-Phe-Val-S8-Phe-Trp-Gln-NH2] | 2.96 | 3.101 | – |
| CC(=O)N[C@@H](Cc1ccccc1)C(=O)N[C@@H](CC(=O)O)C(=O)N[C@@H](C)C(=O)N[C@]1(C)CCCCCCC=CCOC(=O)N2CC[C@@](C(=O)N[C@@H](Cc3ccccc3)C(=O)N[C@@H](Cc3c[nH]c4ccccc34)C(=O)N[C@@H](CCC(N)=O)C(N)=O)(C2)NC(=O)[C@H](C(C)C)NC(=O)[C@H](Cc2ccc(C(N)=O)cc2)NC(=O)[C@H](C)NC(=O)[C@H](C)NC(=O)[C@H](CC(=O)O)NC(=O)[C@H](CC(=O)O)NC1=O [I-91, Ac-Phe-Asp-Ala-R8-Asp-Asp-Ala-Ala-4CBMF-Val-PyrS-Phe-Trp-Gln-NH2] | 4.72 | 1.13 | – |
| CC(=O)N1CCC[C@]12CC=CCCCC1(CCCC=CCCCCCC[C@@](C)(C(=O)N[C@@H](Cc3ccccc3)C(=O)N[C@@H](Cc3c[nH]c4ccccc34)C(=O)N[C@@H](CCC(N)=O)C(N)=O)NC(=O)[C@H](C(C)C)NC(=O)[C@H](Cc3ccccc3)NC(=O)[C@H](C)NC(=O)[C@H](C)NC(=O)[C@H](CCC(=O)O)NC(=O)[C@H](Cc3ccccn3)NC1=O)NC(=O)[C@H](C)NC(=O)[C@H](CC(=O)O)NC2=O (stereo partly drawn) [I-229, Ac-PL3-Asp-Ala-B5-2pyrA-Glu-Ala-Ala-Phe-Val-S8-Phe-Trp-Gln-NH2] | 5.81 | 3.044 | – |
| CC(=O)N1CCC[C@]12CC=CCCCC1(CCCC=CCCCCCC[C@@](C)(C(=O)N[C@@H](Cc3ccc(C(F)(F)F)cc3)C(=O)N[C@@H](Cc3c[nH]c4ccccc34)C(=O)N[C@@H](CCC(N)=O)C(N)=O)NC(=O)[C@H](C(C)C)NC(=O)[C@H](Cc3ccccc3)NC(=O)[C@H](C)NC(=O)[C@H](C)NC(=O)[C@H](CC(=O)O)NC(=O)[C@H](CC(=O)O)NC1=O)NC(=O)[C@H](C)NC(=O)[C@H](CC(=O)O)NC2=O (stereo partly drawn) [I-254, Ac-PL3-Asp-Ala-B5-Asp-Asp-Ala-Ala-Phe-Val-S8-4F3MeF-Trp-Gln-NH2] | 1.96 | 2.232 | – |
| CC(=O)N1CCC[C@]12CC=CCCCC1(CCCC=CCCCCCC[C@@](C)(C(=O)N[C@@H](Cc3cccc(C(F)(F)F)c3)C(=O)N[C@@H](Cc3c[nH]c4ccccc34)C(=O)N[C@@H](CCC(N)=O)C(N)=O)NC(=O)[C@H](C(C)C)NC(=O)[C@H](Cc3ccccc3)NC(=O)[C@H](C)NC(=O)[C@H](C)NC(=O)[C@H](CC(=O)O)NC(=O)[C@H](CC(=O)O)NC1=O)NC(=O)[C@H](C)NC(=O)[C@H](CC(=O)O)NC2=O (stereo partly drawn) [I-249, Ac-PL3-Asp-Ala-B5-Asp-Asp-Ala-Ala-Phe-Val-S8-3F3MeF-Trp-Gln-NH2] | 2.83 | 2.263 | – |
| CC(=O)N1CCC[C@]12CC=CCCCC1(CCCC=CCCCCCC[C@@](C)(C(=O)N[C@@H](Cc3ccccc3)C(=O)N[C@@H](CC3CNc4ccccc43)C(=O)N[C@@H](CCC(N)=O)C(N)=O)NC(=O)[C@H](C(C)C)NC(=O)[C@H](Cc3ccccc3)NC(=O)[C@H](C)NC(=O)[C@H](C)NC(=O)[C@H](CCC(=O)O)NC(=O)[C@H](CC(=O)O)NC1=O)NC(=O)[C@H](C)NC(=O)[C@H](CC(=O)O)NC2=O (stereo partly drawn) [I-168, Ac-PL3-Asp-Ala-B5-Asp-Glu-Ala-Ala-Phe-Val-S8-Phe-H2Trp-Gln-NH2] | 5.64 | 1.942 | – |
| CC(=O)N[C@@H](C)C(=O)N[C@@H](CC(=O)O)C(=O)N[C@@H](C)C(=O)N[C@]1(C)CCN(C)C(=O)OCC=CCCCCC[C@@](C)(C(=O)N[C@@H](Cc2ccccc2)C(=O)N[C@@H](Cc2c[nH]c3ccccc23)C(=O)N[C@@H](Cc2c[nH]cn2)C(N)=O)NC(=O)[C@H](CCC(N)=O)NC(=O)[C@H](Cc2ccccc2)NC(=O)[C@H](C)NC(=O)[C@H](C)NC(=O)[C@H](CCC(=O)O)NC(=O)[C@H](CC(=O)O)NC1=O [I-156, Ac-Ala-Asp-Ala-RdN-Asp-Glu-Ala-Ala-Phe-Gln-S7-Phe-Trp-His-NH2] | 4.18 | – | 1.07 |
